In patent US8119663B2, “Heteroaryl-substituted piperidines” (Bayer Pharma Aktiengesellschaft, priority 2007, dated 2012):

Legend:
[1] = molecular target: T1, human protease activated receptor 1 (PAR1) (Homo sapiens, UniProt P25116); test: Cellular functional in vitro test (aequorin luminescence, PAR1 test cell); format: cell-based; conditions: recombinant HEK293-derived cell line expressing aequorin; PAR1 agonist added at its EC50 5 minutes after test substance
T1 construct: the cell stably expresses the endogenous human PAR1 receptor and the endogenous purinergic receptor P2Y2; endogenous in cells; host or cells: HEK293-derived recombinant cell line constitutively expressing mitochondrial aequorin
T1 sequence (P25116 22-425): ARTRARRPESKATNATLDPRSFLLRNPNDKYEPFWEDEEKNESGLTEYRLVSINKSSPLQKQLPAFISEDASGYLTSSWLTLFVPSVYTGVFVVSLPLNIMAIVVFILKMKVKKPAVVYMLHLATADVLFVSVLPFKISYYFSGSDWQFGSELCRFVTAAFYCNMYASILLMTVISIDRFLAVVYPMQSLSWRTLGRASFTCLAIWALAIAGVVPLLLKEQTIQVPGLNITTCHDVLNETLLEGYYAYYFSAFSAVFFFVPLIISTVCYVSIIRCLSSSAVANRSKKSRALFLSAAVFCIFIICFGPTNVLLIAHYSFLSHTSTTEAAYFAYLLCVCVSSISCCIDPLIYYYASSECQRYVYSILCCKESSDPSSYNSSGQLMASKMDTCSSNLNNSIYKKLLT
From the text: 1.a) Cellular Functional In vitro Test
A recombinant cell line is used to identify […] of the human protease activated receptor 1 (PAR1) and to quantify the activity of the substances described herein. The cell is originally derived from a human embryonal kidney cell (HEK293; ATCC: American Type Culture Collection, Manassas, Va. 20108, USA). The test cell line constitutively expresses a modified form of the calcium-sensitive photoprotein aequorin which, after reconstitution with the cofactor coelenterazine, emits light when the free calcium concentration in the inner mitochondrial compartment is increased (Rizzuto R, Simpson A W, Brini M, Pozzan T.; Nature 1992, 358, 325-327). Additionally, the cell stably expresses the endogenous human PAR1 receptor and the endogenous purinergic receptor P2Y2. The resulting PAR1 test cell responds to stimulation of the endogenous PAR1 or P2Y2 receptor with an intracellular release of calcium ions, which can be quantified through resulting aequorin luminescence with a suitable luminometer (Milligan G, Marshall F, Rees S, Trends in Pharmacological Sciences 1996, 17, 235-237).
For testing the substance specificity, its effect after activation of the endogenous PAR1 receptor is compared to the effect after activation of the endogenous purinergic P2Y2 receptor which utilizes the same intracellular signal path.
Test procedure: The cells are plated out two days (48 hours) before the test in culture medium (DMEM F12, supplemented with 10% FCS, 2 mM glutamine, 20 mM HEPES, 1.4 mM pyruvate, 0.1 mg/ml gentamycin, 0.15% Na bicarbonate; BioWhittaker Cat.# BE04-687Q; B-4800 Verviers, Belgium) in 384-well microtitre plates and kept in a cell incubator (96% atmospheric humidity, 5% V/V CO2, 37° C.). On the day of the test, the culture medium is replaced by a tyrode solution (in mM: 140NaCl, 5l KCl, 1MgCl2, 2CaCl2, 20 glucose, 20 HEPES), which additionally contains the cofactor coelenterazine (25 μM) and glutathione (4 mM), and the microtitre plate is then incubated for a further 3-4 hours. The test substances are then pipetted onto the microtitre plate, and 5 minutes after the transfer of the test substances into the wells of the microtitre plate the plate is transferred into the luminometer, a PAR1 agonist concentration which corresponds to the EC50 is added and the resulting light signal is immediately measured in the luminometer. To distinguish an antagonist substance action from a toxic action, the endogenous purinergic receptor is immediately subsequently activated with agonist (ATP, final concentration 10 μM) and the resulting light signal is measured.

[2] = tested on: platelet-rich plasma (platelet aggregation triggered by thrombin receptor agonist TRAP6, SFLLRN); test: Platelet aggregation in plasma (TRAP6/SFLLRN-induced, Born turbidimetry); format: cell-based; conditions: Homo sapiens; platelet-rich plasma of healthy volunteers; 10 min incubation at 37° C.; light transmission 5 minutes after agonist; concentration at which aggregation is 50% inhibited
Procedure: 1.c) Platelet Aggregation in Plasma
To determine the platelet aggregation, blood of healthy volunteers of both sexes who had not received any thrombocyte aggregation-influencing medication for the last ten days is used. The blood is drawn into monovettes (Sarstedt, Nümbrecht, Germany) which contain, as anticoagulant, sodium citrate 3.8% (1 part of citrate+9 parts of blood). To obtain platelet-rich plasma, the citrated whole blood is centrifuged at 140 g for 20 min.
For the aggregation measurements, aliquots of the platelet-rich plasma are incubated with increasing concentrations of test substance at 37° C. for 10 min. Aggregation is then triggered by addition of a thrombin receptor agonist (TRAP6, SFLLRN) in an aggregometer and determined at 37° C. using the turbidimetric method according Born (Born, G. V. R., Cross M. J., The Aggregation of Blood Platelets; J. Physiol. 1963, 168, 178-195). The SFLLRN concentration giving maximum aggregation is individually determined for each donor.
To calculate the inhibitory effect, the increase of light transmission (amplitude of the aggregation curve in %) is determined 5 minutes after addition of the agonist in the presence and absence of test substance, and the inhibition is calculated. The concentration at which the aggregation is 50% inhibited is calculated from the inhibition curves.

O=C(N1CCOCC1)N1CC(c2ccc(OC(F)(F)F)cc2)CC(c2nc(-c3ccc(F)cc3F)no2)C1 (racemic) [Example 38, 4-({3-[3-(2,4-Difluorophenyl)-1,2,4-oxadiazol-5-yl]-5-[4-(trifluoromethoxy)phenyl]piperidin-1-yl}carbonyl)morpholine]
IC50 [1]: 31 nM | IC50 [2]: 93000 nM

CCc1ccc(C2CC(c3nc(-c4c(F)cccc4F)no3)CN(C(=O)N3CCOCC3)C2)cc1 (racemic) [Example 39, 4-({3-[3-(2,6-Difluorophenyl)-1,2,4-oxadiazol-5-yl]-5-(4-ethylphenyl)piperidin-1-yl}carbonyl)-morpholine]
IC50 [1]: 6.8 nM | IC50 [2]: 5600 nM

CCc1ccc(C2CC(c3nc(Cc4ccccc4Cl)no3)CN(C(=O)N3CCOCC3)C2)cc1 (racemic) [Example 60, 4-({3-[3-(2-Chlorobenzyl)-1,2,4-oxadiazol-5-yl]-5-(4-ethylphenyl)piperidin-1-yl}carbonyl)-morpholine]
IC50 [1]: 10 nM | IC50 [2]: 19600 nM

COCCc1noc(C2CC(c3ccc(C)c(C(F)(F)F)c3)CN(C(=O)N3CCOCC3)C2)n1 (single isomer, unassigned) [Example 459, {3-[3-(2-Methoxyethyl)-1,2,4-oxadiazol-5-yl]-5-[4-methyl-3-(trifluoromethyl)phenyl]piperidin-1-yl}(morpholin-4-yl)methanone]
IC50 [1]: 84.2 nM

CCc1ccc(C2CC(c3nc(CCOC)no3)CN(C(=O)N3CCC(O)CC3)C2)cc1 (single isomer, unassigned) [Example 549, {3-(4-Ethylphenyl)-5-[3-(2-methoxyethyl)-1,2,4-oxadiazol-5-yl]piperidin-1-yl}(4-hydroxy-piperidin-1-yl)methanone]
IC50 [1]: 12.5 nM

O=C(N1CCC(O)C1)N1CC(c2ccc(C(F)(F)F)cc2)CC(c2nc(C3CC3)no2)C1 (stereo not shown) [Example 146, {3-(3-Cyclopropyl-1,2,4-oxadiazol-5-yl)-5-[4-(trifluoromethyl)phenyl]piperidin-1-yl}(3-hydroxy-pyrrolidin-1-yl)methanone]
IC50 [1]: 9.39 nM

O=C(N1CCOCC1)N1CC(c2cccc(C(F)(F)F)c2)CC(c2nc(-c3c(F)cccc3F)no2)C1 (stereo not shown) [Example 352]
IC50 [1]: 4.77 nM

O=C(N1CCOCC1)N1CC(c2cccc(C(F)(F)F)c2)CC(c2nc(-c3cc(F)ccc3F)no2)C1 (stereo not shown) [Example 356]
IC50 [1]: 2.73 nM

COCCc1noc(C2CC(c3ccc(OC(F)(F)F)cc3)CN(C(=O)N3CCC(O)C3)C2)n1 (stereo not shown) [Example 420, (3-Hydroxypyrrolidin-1-yl) {3-[3-(2-methoxyethyl)-1,2,4-oxadiazol-5-yl]-5-[4-(trifluoromethoxy)-phenyl]piperidin-1-yl}methanone]
IC50 [1]: 23.8 nM

COCc1nc(C2CC(c3ccc(C(F)(F)F)cc3)CN(C(=O)N3CCOCC3)C2)no1 (stereo not shown) [Example 465, {3-[5-(Methoxymethyl)-1,2,4-oxadiazol-3-yl]-5-[4-(trifluoromethyl)phenyl]piperidin-1-yl}-(morpholin-4-yl)methanone]
IC50 [1]: 24.4 nM
